The values that follow come from PubChem BioAssay (NCI).

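Protocol summary: plate cells (96-well), add compound at 5 concentrations, incubate 48 h, interpolate endpoints linearly. GI50 marks 50% less growth. TGI marks complete inhibition of growth.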

Holding throughout (assay): NCI tumour cell line growth inhibition, 48 h
Assay [1] deals with NCI-H226 lung.
In assay [2] the test system is MOLT-4 leukemia.
For assay [3], the system named is HL-60(TB) leukemia.
Assay [4] deals with A549 NSCLC.
Assay [5] relates to MDA-MB-435.
For assay [6], the system named is OVCAR-3 ovarian.
Assay [7] relates to HCT-116 colon.
Assay [8] has as its system CAKI-1 renal.
The subject of assay [9] is TK-10 renal.
The subject of assay [10] is ACHN renal.

On to `CCN1C(=O)N(c2ccccc2)C2NC(=S)N(/N=C/C=C/c3ccccc3)C21` (stereo unspecified), for which the GI50 in assay [1] was 2.79 µM; in [2], 0.38 µM; in assay [3], 0.227 µM; in [4], 0.417 µM; in assay [5] it was 0.0314 µM; in assay [6] it was 0.263 µM. Also, the GI50 in [7] is 0.297 µM; in assay [8], 0.269 µM; in [9] it was 0.825 µM; in assay [10] it was 0.763 µM. Moreover, the TGI in [1] was above 100 µM; in assay [2], above 100 µM; in [3], 0.745 µM; in assay [4], above 100 µM; in assay [5], 0.216 µM; in [7], above 100 µM. The TGI in [8], in assay [9] and in [10] was above 100 µM each time.

Consider `CCN1Cc2c(ccc(F)c2C#N)O[C@@H](C)CNC(=O)c2c(N)nn3ccc1nc23`, for which the GI50 was 3.79 µM in [1]; 2.75 µM in [2]; 4.37 µM in [3]; 2.85 µM in assay [4]; 2.74 µM in assay [5]; 3.37 µM in [6]. In addition, the GI50 in assay [7] was 1.25 µM; in assay [8], 0.399 µM; in [9], 1.29 µM; in assay [10], 0.676 µM. For the same molecule, the TGI in assay [1] turned out to be 18.6 µM; in assay [2] it was 69.2 µM; in assay [3] it was 40 µM; in [4] it was 24 µM; in [5] it was 20.2 µM; in [6], 18.1 µM. In addition, the TGI in assay [7] came out at 11.5 µM; in [8] it was 1.98 µM; in assay [9] it was 11.7 µM; in [10], 6.86 µM.

Consider `O=C(Nc1ccc2[nH]c(=S)sc2c1)Nc1ccccc1F`, for which the GI50 in assay [2] was 22.4 µM; in [3] it was 23.9 µM; in assay [4], 51.2 µM; in assay [5], 23.1 µM; in [6] it was 34.8 µM; in assay [7], 37.7 µM. Moreover, the GI50 in [8] was 2.71 µM; in assay [9], 51.5 µM; in assay [10], 37.4 µM. For the same molecule, the TGI was above 100 µM in assay [2]; 93.5 µM in [3]; above 100 µM in [4]; above 100 µM in assay [5]; above 100 µM in [6]; above 100 µM in assay [7]. The figures for the TGI in [8], in assay [9] and in assay [10] were 14.6 µM, above 100 µM and above 100 µM, respectively.

For `Nc1nc(N)c2c(n1)NC(c1ccc(F)cc1)C1CCc3ccccc3C1=N2` (stereo unspecified), the GI50 in [1] is 5.97 µM; in assay [4], 10.2 µM; in assay [5], 2.84 µM; in [6], 4.15 µM; in [7] it was 3.04 µM; in [8], 2.72 µM. The GI50 is 3.63 µM in assay [9] and 4.96 µM in assay [10]. Also, the TGI in assay [1] stood at 24.5 µM; in [4], 24.3 µM; in assay [5] it was 11.6 µM; in assay [6], 16.1 µM; in assay [7] it was 11.9 µM; in assay [8], 16.2 µM. The TGI in assay [9] was 16.9 µM; in assay [10], 17.8 µM.

As to `COC(=O)C1CCCN1C(=O)[C@@H]1CCCN1C(=O)[C@H](Cc1c[nH]c2ccccc12)NC(=S)Nc1cc(C(F)(F)F)cc(C(F)(F)F)c1` (stereo partly specified), the GI50 in [1] was 2.26 µM; in assay [2], 2.04 µM; in assay [3] it was 2.35 µM; in [4] it was 1.98 µM; in assay [5], 3.03 µM; in assay [6], 2.03 µM. Besides, the GI50 in [7] was 1.72 µM; in assay [8], 2.73 µM; in [9], 2.11 µM. Besides, the TGI in assay [1] stood at 8.01 µM; in [2], 8.62 µM; in assay [3], 5.95 µM; in [4] it was 6.92 µM; in assay [5], 12.4 µM; in assay [6], 3.85 µM. In addition, the results for the TGI in assay [7], in assay [8] and in assay [9] were 3.34 µM, 11.1 µM and 5 µM, respectively.

On to `O=c1[nH]c(=O)c2cc(C3CC(O)C(CO)O3)ccc2[nH]1` (stereo unspecified), for which the GI50 in assay [1], in assay [2], in assay [4], in assay [5], in assay [6] and in assay [7] was above 100 µM each time. Moreover, the GI50 in [8] was above 100 µM. Also, the TGI in assay [1], in assay [2], in assay [4], in assay [5], in assay [6] and in assay [7] was above 100 µM throughout. In assay [8], this molecule gave a TGI above 100 µM.

Take `O=S(=O)(c1cccc2c(Cl)cccc12)N1CCCNCC1`: the GI50 was 11.8 µM in [1]; 12.8 µM in [2]; 14 µM in assay [4]; 14.9 µM in assay [5]; 14.6 µM in [6]; 10.3 µM in assay [7]. The values for the GI50 in assay [8], in [9] and in assay [10] were 17.3 µM, 13 µM and 14.4 µM, respectively. Besides, the TGI in assay [1] is 25.3 µM; in assay [2] it was 26 µM; in [4] it was 28.2 µM; in assay [5] it was 28.6 µM; in assay [6], 29.4 µM; in assay [7], 21.9 µM. Further, the TGI in assay [8] is 32.6 µM; in assay [9], 25.8 µM; in [10], 27.4 µM.

With `FC(F)(F)c1ccc(C#Cc2ccccc2C#Cc2ccccc2)cc1`, the GI50 is 30.1 µM in [1]; 35 µM in assay [2]; 49.9 µM in assay [4]; 35.4 µM in [5]; 29.5 µM in assay [6]; 21.6 µM in [7]. The GI50 was 46.1 µM in [8], 31.7 µM in [9] and 40.9 µM in assay [10]. For the same molecule, the TGI in assay [1] is 99.9 µM; in [2], 87.2 µM; in assay [4] it was above 100 µM; in assay [5], above 100 µM; in assay [6], 91.9 µM; in assay [7], above 100 µM. In addition, the TGI in assay [8], in assay [9] and in assay [10] was above 100 µM each time.
